Data taken from patent US9482666B2, “High throughput selection of specific cell binding and lytic polypeptides” (priority 2011, dated 2016).

Key:
Test in all cases: Functional assay on peptide microarray (CTO/AF555 profile)
E. coli O111:B4 = assay type: cell-based, Escherichia coli O111:B4; settings: EC; CTO and AF555 labeled cells
Text: (§1) In order to make our technology more informative, we have developed a procedure for distinguishing those classes of peptides directly on the microarray (see FIG. 1c). Using the intracellular stain CTO we detected the first class (peptide-binders) and the third class (no activity). We decided to involve additional reference dye “Alexa Fluor-555” with an NHS ester active group that attack free amines present in membrane-bound proteins. It was expected, and subsequently shown, that peptide-binders should have signals dominated by both dyes on parallel arrays (profile CTO+AF+). In the case of peptides with killing activity, CTO should leak out of cells once the membrane is disrupted (profile CTO−AF+).
(§2) Before probing, the slides were treated with 90% TFA (trifluor-acetic acid) to get rid of non-immobilized peptides, blocking groups and probable organic impurities followed by DMF, ethanol and deionized water washing. […]
(§3) Turbidity of overnight cultures was measured at OD600. The CFU/ml value was calculated according to McFarland turbidity standard. […]
(§4) Microarrays were scanned by using a Perkin-Elmer ProScanArray HT Microarray Scanner with the 488, 543 and 633 nm excitation lasers at 100% power and 70% photomultiplier tube gain. […] All scanned images were analyzed by using GenePix Pro 6.0 software (Axon Instruments, Union City, Calif., USA). […]

P. aeruginosa PAO-1 = assay type: cell-based, Pseudomonas aeruginosa; settings: PA; CTO and AF555 labeled cells
Text: as §1, §2, §3, §4

S. aureus UAB637 = assay type: cell-based, Staphylococcus aureus; settings: SA; CTO and AF555 labeled cells
Text: as §1, §2, §3, §4

S. mutans UAB147 = assay type: cell-based, Streptococcus mutans; settings: SM; CTO and AF555 labeled cells
Text: as §1, §2, §3, §4

B. subtilis = assay type: cell-based, Bacillus subtilis; settings: BS; CTO and AF555 labeled cells
Text: as §1, §2, §3, §4

Row | Sequence | microarray profile (lytic / binder / no profile) (E. coli O111:B4) | microarray profile (lytic / binder / no profile) (P. aeruginosa PAO-1) | microarray profile (lytic / binder / no profile) (S. aureus UAB637) | microarray profile (lytic / binder / no profile) (S. mutans UAB147) | microarray profile (lytic / binder / no profile) (B. subtilis)
1 | DRIFHKMQHKPYKIKKRGSC | binder | lytic | binder | lytic | no profile
2 | RWRRHKHFKRPHRKHKRGSC | no profile | lytic | lytic | lytic | lytic
